Consider 21 molecules from patent publication US20200031848A1, “AR-V7 INHIBITORS” (Hoffmann-La Roche Inc., priority 2016, published 2020).

For data set [1], the target named is T1, AR transcriptional activity (Homo sapiens, UniProt P10275, T878A).
T1 construct: The LNCaP eGFP cell line was stably transfected with an androgen-responsive probasin-derived promoter fused to an eGFP reporter; endogenous in cells; host or cells: LNCaP eGFP (LN-ARR2PB-eGFP) human prostate cancer cells
T1 sequence (P10275 1-920 T878A): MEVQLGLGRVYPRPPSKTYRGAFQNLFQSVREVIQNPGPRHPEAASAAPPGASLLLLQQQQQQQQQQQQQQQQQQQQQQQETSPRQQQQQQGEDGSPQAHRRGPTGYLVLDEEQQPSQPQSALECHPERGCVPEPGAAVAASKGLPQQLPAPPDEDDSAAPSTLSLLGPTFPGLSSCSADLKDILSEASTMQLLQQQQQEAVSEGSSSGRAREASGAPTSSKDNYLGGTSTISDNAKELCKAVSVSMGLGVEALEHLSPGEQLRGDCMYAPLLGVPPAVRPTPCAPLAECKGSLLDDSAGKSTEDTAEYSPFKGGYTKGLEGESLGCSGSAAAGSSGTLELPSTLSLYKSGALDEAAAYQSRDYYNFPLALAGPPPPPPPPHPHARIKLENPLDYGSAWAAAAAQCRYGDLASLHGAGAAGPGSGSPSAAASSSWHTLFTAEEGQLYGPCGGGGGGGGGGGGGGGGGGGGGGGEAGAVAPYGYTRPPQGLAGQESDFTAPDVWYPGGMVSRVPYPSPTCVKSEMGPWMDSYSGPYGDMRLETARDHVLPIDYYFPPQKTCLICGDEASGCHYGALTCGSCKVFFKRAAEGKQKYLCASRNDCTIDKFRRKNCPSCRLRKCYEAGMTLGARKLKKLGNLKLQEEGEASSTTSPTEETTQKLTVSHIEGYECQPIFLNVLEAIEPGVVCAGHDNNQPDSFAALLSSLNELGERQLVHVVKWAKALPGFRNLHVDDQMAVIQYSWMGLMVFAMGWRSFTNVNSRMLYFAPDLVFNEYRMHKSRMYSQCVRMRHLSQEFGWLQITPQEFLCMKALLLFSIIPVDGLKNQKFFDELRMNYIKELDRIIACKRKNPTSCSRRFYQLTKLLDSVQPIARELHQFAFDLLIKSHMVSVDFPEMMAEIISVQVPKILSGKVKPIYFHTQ
Nature of the data set: eGFP cellular AR transcription assay. The class given is cell-based. As to conditions: for inhibition at 1 µM: read-out: eGFP % inhib. at 1 μM. From the text:
The DNA-binding domain is an attractive target for inhibition of AR dimerization and/or DNA binding. In silico computational drug discovery methods were used to conduct a virtual screen of >3 million purchasable lead-like compounds from the ZINC database (Irwin, J. et al.^11) to identify potential DBD binders. The in silico methods included large-scale docking, in-site rescoring and consensus voting procedures. It will be understood by a person of skill that COOH and NR2 may include the corresponding ions, for example carboxylate ions and ammonium ions, respectively. Alternatively, where the ions are shown, a person of skill in the art will appreciate that the counter ion may also be present. Furthermore, it will be appreciated by a person of skill that other moieties may include the corresponding ions, and where the ions are shown, a person of skill in the art will appreciate that the counter ion may also be present. […] Where the % inhibition, eGFP IC50 or the PSA IC50 has no value given, this may be because no measurement was taken or the value was not calculated, in the case of the % inhibition. In vitro identification of AR inhibitors targeting AR DBD The selected compounds were assessed with a non-destructive eGFP assay that quantifies levels of AR transcriptional activity, were identified (table below).
(§1) 1. Cell Culture: LNCaP and PC3 human prostate cancer cells were obtained from American Type Culture Collection (ATCC, Manassas, Va.) and grown in RPMI 1640 medium supplemented with 5% fetal bovine serum (FBS) (Invitrogen). The LNCaP eGFP cell line was stably transfected with an androgen-responsive probasin-derived promoter fused to an eGFP reporter (LN-ARR2PB-eGFP) using a lentiviral approach, and were grown in phenol-red-free RPMI 1640 supplemented with 5% CSS. In-house developed MDV3100-resistant LNCaP cells were cultured in RPMI 1640 supplemented with 5% FBS and 10 μM MDV3100. All cells were maintained at 37° C. in 5% CO2.
2. eGFP cellular AR transcription assay: The AR transcriptional activity was assayed as previously described (Tavassoli, P., et al.^12).

For data set [2], the system named is PSA levels secreted into the media. The data set is described as follows: Prostate-specific antigen (PSA) assay. The class given is cell-based. The note with it: Homo sapiens, 72 h; in parallel to the eGFP assay, same plates, 3 days. The method, then: as §1
3. Prostate-specific antigen (PSA) assay: The evaluation of PSA levels secreted into the media was performed in parallel to the eGFP assay using the same plates. After cells were incubated for 3 days, 150 μl of the media was taken from each well, and added to 150 μl of PBS. PSA levels were then evaluated using Cobas e 411 analyzer instrument (Roche Diagnostics) according to the manufacturer's instructions.

Data set [3] is described as follows: in vitro. The note with it: human, microsomes; for microsomal CLint at 2 μM: pH 7.4. The method, then: Microsomal incubations were carried out in 96-well plates in 5 aliquots of 40 μL each (one for each time point). […] Control incubations were performed replacing the NADPH-cofactor system with PBS. […] Incubations were performed in duplicates. Five time points over 40 minutes had been analyzed. The reactions were stopped by adding 12 volumes of 90% acetonitrile-water to incubation aliquots, followed by protein sedimentation by centrifuging at 5500 rpm for 5 minutes. Supernatants were analyzed using the HPLC system coupled with tandem mass spectrometer. The elimination constant (kel), half-life (t1/2) and intrinsic clearance (Clint) were determined in plot of […] versus time, using linear regression analysis: […]

By IC50 is commonly meant the midpoint of a concentration-inhibition curve. Read a low IC50 as greater potency. Regarding `CC1(C)CN(c2nc(-n3cc(Br)nc3Br)cs2)CCO1` [Example 1, 4-[4-(2,4-dibromoimidazol-1-yl)thiazol-2-yl]-2,2-dimethyl-morpholine], the figures for the concentration for half-maximal inhibition (IC50) in data set [1] (LNCaP eGFP cell line) and in data set [2] were 117 nM and 95 nM, respectively.
For `Brc1cn(-c2csc(N3[C@@H]4CCC[C@H]3COC4)n2)c(Br)n1` [Example 2, (1S,5R)-9-[4-(2,4-dibromoimidazol-1-yl)thiazol-2-yl]-3-oxa-9-azabicyclo[3.3.1]nonane] the same measures were 135 nM and 74 nM.
Regarding `Brc1ncn(-c2csc(N3C[C@H]4CC[C@@H](C3)O4)n2)c1Br` [Example 3, (1R,5S)-3-[4-(4,5-dibromoimidazol-1-yl)thiazol-2-yl]-8-oxa-3-azabicyclo[3.2.1]octane], the IC50 was 182 nM in data set [1] (LNCaP eGFP cell line) and 1060 nM in data set [2].
Usually microsomal CLint stands for the capacity of the preparation to metabolise the compound, expressed as a volume cleared per time. Read a high microsomal CLint as rapid turnover. For `Clc1ncn(-c2csc(N3C[C@H]4CC[C@@H](C3)O4)n2)c1Br` [Example 21, (1R,5S)-3-[4-(5-bromo-4-chloro-imidazol-1-yl)thiazol-2-yl]-8-oxa-3-azabicyclo[3.2.1]octane], the IC50 in data set [1] (LNCaP eGFP cell line) was 300 nM. Moreover, in data set [3], the “metabolic stability in human hepatic microsomal test system (in words)” value (“metabolic stability” for short) is “high metabolic stability” and the microsomal CLint at 2 μM is 6 µL/min/mg.
Turning to `CC1CN(c2nc(-n3cc(Br)nc3Br)cs2)CCO1` (stereo not drawn) [Example 22, 4-[4-(2,4-dibromoimidazol-1-yl)thiazol-2-yl]-2-methyl-morpholine], the IC50 in data set [1] (LNCaP eGFP cell line) is 400 nM. Further, in data set [3], the microsomal CLint at 2 μM was found to be 52 µL/min/mg.
Turning to `COc1nc(Br)cn1-c1csc(N2[C@@H]3CC[C@H]2COC3)n1` [Example 23, (1S,5R)-8-[4-(4-bromo-2-methoxy-imidazol-1-yl)thiazol-2-yl]-3-oxa-8-azabicyclo[3.2.1]octane], the IC50 in data set [1] (LNCaP eGFP cell line) was 270 nM. Moreover, the microsomal CLint at 2 μM in data set [3] came to 22 µL/min/mg.
`Clc1c(Br)ncn1-c1csc(N2C[C@H]3CC[C@@H](C2)O3)n1` [Example 24, (1R,5S)-3-[4-(4-bromo-5-chloro-imidazol-1-yl)thiazol-2-yl]-8-oxa-3-azabicyclo[3.2.1]octane] yielded an IC50 in data set [1] (LNCaP eGFP cell line) of 700 nM. Also, in data set [3], the “metabolic stability” value is reported as “high metabolic stability” and the microsomal CLint at 2 μM came to 13 µL/min/mg.
For the molecule `OCc1nc(Br)c(Br)n1-c1csc(N2[C@@H]3CC[C@H]2COC3)n1` [Example 36, [4,5-dibromo-1-[2-[(1R,5S)-3-oxa-8-azabicyclo[3.2.1]octan-8-yl]thiazol-4-yl]imidazol-2-yl]methanol], the IC50 in data set [1] (LNCaP eGFP cell line) amounted to 2990 nM. For the same molecule, in data set [3], the “metabolic stability” value is “high metabolic stability” and the microsomal CLint at 2 μM worked out at 10 µL/min/mg.
Turning to `CCC1(CC)CN(c2nc(-n3cc(Br)nc3Br)cs2)CCO1` [Example 37, 4-[4-(2,4-dibromoimidazol-1-yl)thiazol-2-yl]-2,2-diethyl-morpholine], the inhibition at 1 µM in data set [1] was 33%. Also, the intrinsic clearance (microsomal CLint) at 2 μM in data set [3] amounted to 129 µL/min/mg.
The molecule `FC(F)(F)C1CN(c2nc(-n3cc(Br)nc3Br)cs2)CCO1` (stereo not drawn) [Example 38, 4-[4-(2,4-dibromoimidazol-1-yl)thiazol-2-yl]-2-(trifluoromethyl)morpholine] displayed an IC50 in data set [1] (LNCaP eGFP cell line) of 1950 nM. The microsomal CLint at 2 μM in data set [3] amounted to 44 µL/min/mg.
As for `Brc1cn(-c2csc(N3CCOC4(COC4)C3)n2)c(Br)n1` [Example 39, 8-[4-(2,4-dibromoimidazol-1-yl)thiazol-2-yl]-2,5-dioxa-8-azaspiro[3.5]nonane], the inhibition at 1 µM in data set [1] was 34%. In addition, the microsomal CLint at 2 μM in data set [3] was 18 µL/min/mg.
For `Cc1c(Br)ncn1-c1csc(N2CCOCC2)n1` [Example 53, 4-[4-(4-bromo-5-methyl-imidazol-1-yl)thiazol-2-yl]morpholine] the same measures were 44% and 72 µL/min/mg.
On to `Cc1ncn(-c2csc(N3CCOCC3)n2)c1Br` [Example 54, 4-[4-(5-bromo-4-methyl-imidazol-1-yl)thiazol-2-yl]morpholine], for which, in data set [1], the inhibition at 1 µM was determined as 28%. Further, the intrinsic metabolic clearance (microsomal CLint) at 2 μM in data set [3] was determined as 224 µL/min/mg.
Take `c1cn(-c2csc(N3CCOCC3)n2)cn1` [Example 55, 4-(4-imidazol-1-ylthiazol-2-yl)morpholine]: in data set [1], the inhibition at 1 µM came out at 17%. Further, in data set [3], the “metabolic stability” value was “high metabolic stability” and the microsomal CLint at 2 μM turned out to be 10 µL/min/mg.
Regarding `CCOC(=O)c1nc(Br)c(Br)n1-c1csc(N2CCOCC2)n1` [Example 56, ethyl 4,5-dibromo-1-(2-morpholinothiazol-4-yl)imidazole-2-carboxylate], in data set [1], the inhibition at 1 µM is 12%. Besides, the microsomal CLint at 2 μM in data set [3] was found to be 33 µL/min/mg.
Turning to `OCc1nc(Br)c(Br)n1-c1csc(N2CCOCC2)n1` [Example 57, [4,5-dibromo-1-(2-morpholinothiazol-4-yl)imidazol-2-yl]methanol], half-maximal inhibition in data set [1] (LNCaP eGFP cell line) (IC50) was put at 6450 nM. Also, in data set [3], the “metabolic stability” value is “high metabolic stability” and the microsomal CLint at 2 μM was 10 µL/min/mg.
As for `N#Cc1cn(-c2csc(N3CCOCC3)n2)cn1` [Example 58, 1-(2-morpholinothiazol-4-yl)imidazole-4-carbonitrile], the inhibition at 1 µM in data set [1] turned out to be 2%. This molecule had a microsomal CLint at 2 μM in data set [3] of 23 µL/min/mg.
As to `Brc1nccn1-c1csc(N2CCOCC2)n1` [Example 59, 4-[4-(2-bromoimidazol-1-yl)thiazol-2-yl]morpholine], the inhibition at 1 µM in data set [1] is 35%. In addition, in data set [3], the intrinsic clearance (microsomal CLint) at 2 μM worked out at 42 µL/min/mg.
On to `Cc1nc(-c2ccccc2)cn1-c1csc(N2CCOCC2)n1` [Example 60, 4-[4-(2-methyl-4-phenyl-imidazol-1-yl)thiazol-2-yl]morpholine], for which the inhibition at 1 µM in data set [1] came out at 3%. Also, the microsomal CLint at 2 μM in data set [3] amounted to 44 µL/min/mg.
For the molecule `OCc1c(Br)ncn1-c1csc(N2CCOCC2)n1` [Example 61, [5-bromo-3-(2-morpholinothiazol-4-yl)imidazol-4-yl]methanol], the inhibition at 1 µM in data set [1] was 31%. Besides, in data set [3], the “metabolic stability” value is reported as “high metabolic stability” and the microsomal CLint at 2 μM was found to be 15 µL/min/mg.
For `OCc1ncn(-c2csc(N3CCOCC3)n2)c1Br` [Example 62, [5-bromo-1-(2-morpholinothiazol-4-yl)imidazol-4-yl]methanol], the “eGFP IC50” value in data set [1] (LNCaP eGFP cell line) is “inact”. The molecule further registered a microsomal CLint at 2 μM in data set [3] of 19 µL/min/mg.
